Assays:
[1] = DPPH radical scavenging activity; format: biochemical
Method: In order to extract an effective ingredient having an anti-oxidant activity from Cercis chinensis, an experiment was performed following the procedure represented in a schematic diagram of FIG. 1. Particularly, 1 kg of leaves and stems of Cercis chinensis, dried in shadow, were grinded to powder using a pulverizer, which was extracted by ethanol (EtOH) at room temperature twice at intervals of two weeks. For the extraction, ethanol solutions were prepared by adding ethanol gradually, 10% at a time, from 0% to 100%. The prepared ethanol solutions were used for the extraction. […] But, it looses absorbance when being scavenged. Based on that point, an anti-oxidant activity can be measured using DPPH. […] Then, each solution was distributed into a 96 well plate by 10 μl each, into which 190 μl of DPPH(Sigma, St. Louis, Mo, USA) solution whose ethanol concentration was 2×10^−4 M/ml was added. The plate was just left at room temperature for 30 minutes. Finally, OD517 was measured at 517 nm. For a control, DMSO was added instead of the sample, and changes of optical density were investigated. […] DDPH Radical Scavenging Activity (%)=(Acontrol−Asample)/(Acontrol)×100 <Mathematica Formula 1>
Acontrol: Optical density of control group (sample was not added),
Asample: Optical density of experimental group (sample was added).
In order to identify a fraction having an anti oxidant activity among hexane Fr, EtOAc Fr and BuOH Fr obtained above, a DPPH radical scavenging activity was measured using each extract of each fraction following the method used above. At this time, vitamin E, known to have high DPPH radical scavenging activity, was used as a comparing group.
At this time, BHA (tert-butyl-4 hydroxyanisole) and α-tocopherol, synthetic anti-oxidant agents, were used as positive controls.

[2] = Hydroxyl radical scavenging activity (deoxyribose/TBA, method of Halliwell); format: biochemical; details: 10 μg of sample, total volume 1 ml
Method: Hydroxyl radical (HO.) is generated by the reaction of a metal ion or a superoxide radical. Owing to its strong reactivity, hydroxyl radical causes oxidative damages to DNA, protein and lipid in vivo. Nitric oxide (NO.) is reacted with a superoxide radical to generate a peroxy nitrite (ONOO—), also having strong reactivity. […] Particularly, each compound was mixed with 10 μg of a sample dissolved in DMSO, phosphate buffer (20 mM, pH 7.4) 5.6 mM deoxyribose, 0.1 mM FeCl3, 1 mM H2O2 and 0.1 mM ascorbic acid, making total volume 1 ml, which was then reacted at 37° C. for 60 minutes. 250 μl of 20% TCA and 250 μl of 1% TBA solution (dissolved in 50 mM NaOH) were added to the reaction solution, followed by thermal reaction at 95° C. for 5 minutes. After completing the reaction, OD532 was measured. Hydroxyl radical scavenging activity was calculated by the below
<Mathematical Formula 3>. BHA and α-tocopherol were used for a positive control. Hydroxyl Radical Scavenging Activity (%)=(Acontrol−Asample)/(Acontrol−Ablank)×100 <Mathematical Formula 3>
Acontrol: Optical density of control group well (sample was not added),
Asample: Optical density of experimental group well (sample was added),
Ablank: Optical density of well not added with sample, TCA and TBA

[3] = tested on: HEK-N/F cells; experiment: Protection of cells from oxidative damage induced by t-butylhydroperoxide; format: cell-based, human; details: 1.5 mM t-butylhydroperoxide 3 hours
Method: t-butylhydroperoxide is metabolized into a free radical intermediate as it comes in a cell, so that it causes lipid peroxidation, resulting in cell damage. This phenomenon is similar to that caused by oxidataive stress accumulated in cells and tissues. […] HEK-N/F, an epidermal cell line of a newborn baby, was treated with 1.5 mM of t-butylhydroxyperoxide for 3 hours.

[4] = tested on: HEK-N/F cells; experiment: Prolongation of life span of a cell; format: cell-based, human; details: 3 μg/ml during culture
Method: HEK-N/F cells were obtained from foreskin of a newborn baby after its fibroblasts, another major component of skin, were treated with uridine bromide. Then, the cells were cultured in DMEM medium supplemented with 10 FBS. HEK-N/F cells were diluted consecutively at the ratio of 1:4 during the culture. Before being treated with samples, the cells were grown up to 3 PDL (population doubling level). During the culture, each sample was administered by […]. Medium was replaced every three days by fresh medium supplemented with a culture solution containing the equal concentration of the sample.

[5] = tested on: HEK-N/F cells; experiment: Telomere length / maximum PDL (Southern blot of TRFs); format: cell-based, human
Method: In the above Example 8, an extract of […] chinensis and active ingredients separated from the same were confirmed to have an effect of prolongation of life span of a cell. Thus, in this example, relation between the effect of prolongation of life span and the length of a telomere was investigated. Particularly, genomic DNA was extracted from each cell of different ages by using a nucleic acid extraction kit (Isoquick Nucleic Acid Extraction kit, ORCA Research Inc.), which was stored at 4° C. after being dissolved in Tris-EDTA solution (10 mM Tris-HCl, 1 mM EDTA, pH 8.0). 2 μl of 10×H buffer solution (TaKaRa), 2 μl of the extracted genomic DNA solution and distilled water were all mixed in a 1.5 ml tube, making final volume 19 μl. Then, 1 μl at of restriction enzyme […]) was added thereto. […] Then, the gel was immersed in 0.25 N HCl, followed by shaking for 15 minutes. The gel was washed twice with distilled water. This gel was dipped into denaturing solution (0.2 N NaOH, 0.6 M NaCl), followed by shaking for 25 minutes at room temperature. And then, the gel was washed three times with distilled water. On a blotting device filled with 6×SSC, nitrocellulose membrane (Optitran BA-S 85, Schleicher & Schuel), 3 mm filter paper, paper towel, glass plate and weight (2 kg) were loaded in that order, followed by blotting overnight. After the blotting was finished, membrane filter was soaked in 3×SSC, and then water was discarded smoothly. The positions of the wells on the membrane were marked. The membrane was placed between filter papers, followed by baking at 80° C. for overnight. […] After being dried, the membrane was covered with wrap and set in a cassette on which X-ray film (Scientific Imaging Film, Kodak) and intensifying screen were attached. Autoradiography was performed at -80° C. for overnight. Based on the developed film and the location of the membrane, the positions of the wells were marked by a magic pen. The density peak of TRFs was detected by a laser densitometer (UltroScan XL, Pharmacia) and its mobility was calculated.

[6] = tested on: rat brain homogenates; experiment: Lipid peroxidation inhibitory activity (Fe2+/ascorbic acid, TBA method); details: Table 4

**Q.** For `O=c1c(O)c(-c2cc(O)c(O)c(O)c2)oc2cc(O)cc(O)c12` [Chemical Formula 9, myricetin], which “DPPH radical scavenging activity (in words)” value [1] is on record?
**A.** strong radical scavenging activity

**Q.** And the “DPPH radical scavenging activity IC50” value ([1]; Table 3)?
**A.** 7.3 ± 0.3 µg/mL

**Q.** And the “Hydroxyl radical scavenging activity (%)” value [2]?
**A.** 8.7%

**Q.** What about the “Cell survival rate (%)” value [3] of the same compound?
**A.** 61.0±4.5%

**Q.** And the “TBARS (pmol/mg protein)” value ([3]; compound 50.0 µg/ml)?
**A.** 810.7 ± 77.0 pmol/mg protein

**Q.** What about the “average life span of a cell” value [4] of the same compound?
**A.** 56 days

**Q.** What about the “life span, times as long as that of a control” value [4] of the same compound?
**A.** 1.6 times

**Q.** And the “telomere shortening speed delayed, comparing to control” value [5]?
**A.** 1.6 times

**Q.** And the “maximum PDL” value ([5]; control 14.1)?
**A.** 23.1

**Q.** And the “Lipid Peroxidation Inhibitory Activity IC50” value [6]?
**A.** 0.95 ± 0.06 µg/mL
